{"source": "patent US20230181614A1", "about": "“ADMINISTRATION OF CITICOLINE TO IMPROVE COGNITIVE PERFORMANCE, ATTENTIONAL PERFORMANCE, AND MOTOR FUNCTION” (KYOWA HAKKO BIO CO., LTD., priority 2014, published 2023)", "tested_on": "Healthy subjects, ages 13-18", "experiment": "California Verbal Learning Test I and II (CVLT)", "format": "in vivo, human", "details": "for CVLT I & II List A Long Delay V1, Mean / CVLT I & II List A Short Delay V1, Mean / CVLT I & II List A Trial 1 V1, Mean / CVLT I & II List A Trial 5 V1, Mean / CVLT I & II List A Trials 1-5 V1, Mean / CVLT I & II List B V1, Mean: Visit 1; for V3-V1 CVLT I & II Difference List A Long Delay, Mean / V3-V1 CVLT I & II Difference List A Short Delay, Mean / V3-V1 CVLT I & II Difference List A Trial 1, Mean / V3-V1 CVLT I & II Difference List A Trial 5, Mean / V3-V1 CVLT I & II Difference List A Trials 1-5, Mean / V3-V1 CVLT I & II Difference List B Trial 1, Mean: Visit difference score; for CVLT I & II List A Long Delay V3, Mean / CVLT I & II List A Short Delay V3, Mean / CVLT I & II List A Trial 1 V3, Mean / CVLT I & II List A Trial 5 V3, Mean / CVLT I & II List A Trials 1-5 V3, Mean / CVLT I & II List B V3, Mean: Visit 3", "source_text": "Study participants were screened by telephone prior to study enrollment. Healthy subjects, ages 13-18, with no significant medical conditions and no history of co-morbid psychiatric disorder, current Axis I or II diagnosis, or previous participation in a pharmacotherapeutic trial, were selected. Use of any psychotropic medication or any previous head injury resulting in loss of consciousness for 5 or more minutes were used as exclusion criteria. While no participant met criteria for a neuropsychiatric disorder at enrollment, clinical assessments were still completed throughout the study to evaluate changes in mood state. In addition, self-reports of sleep habits, lifestyle, and exercise routines were also administered at baseline as well as at each study visit to assess changes in health habits during study participation. Following the completion of Visit 1 assessment, participants were given their 28-day supply of citicoline (250 mg or 500 mg) or placebo, which was randomly assigned. They were instructed to take one capsule a day every day for the next 28 days. Visit 2 occurred fourteen days after Visit 1. At Visit 2, the remaining study pills were counted and participant dosage calendars were checked to ensure compliance with the protocol. Additional neuropsychological measures and clinical assessments were administered during this visit. Participants returned for Visit 3 fourteen days later, on the 28th day of their study participation. The pill bottle and the dosage calendar were collected from each participant. Urine and blood were again obtained. Participants also participated in similar clinical and neuropsychological testing and clinical measures that were given during visit 1. […] Subjects are asked to remember a 16-item word list, which is presented on five trials. After each trial, the subject is asked to recall all of the words that they can remember. A second list is then presented to provide an interference condition. The subject is then asked to recall the first word list. After a temporal delay, the subject is again asked to recall the first word list. Test results provide scores for assessing verbal learning, strength of memory following interfering tasks, proactive interference, accuracy of recognition memory and storage versus retrieval of newly learned information. The CVLT was administered at all three visits.", "data": [{"smiles": "C[N+](C)(C)CCOP(=O)(O)OP(=O)([O-])OC[C@H]1O[C@@H](n2ccc(N)nc2=O)[C@H](O)[C@@H]1O", "note": "[citicoline, Cytidine 5′-diphosphocholine]", "values": [{"measurement": "CVLT I & II List A Long Delay V1, Mean", "setting": "250 mg/day group", "result": 10.26}, {"measurement": "CVLT I & II List A Short Delay V1, Mean", "setting": "250 mg/day group", "result": 10.56}, {"measurement": "CVLT I & II List A Trial 1 V1, Mean", "setting": "250 mg/day group", "result": 6.11}, {"measurement": "CVLT I & II List A Trial 5 V1, Mean", "setting": "250 mg/day group", "result": 12.33}, {"measurement": "CVLT I & II List A Trials 1-5 V1, Mean", "setting": "250 mg/day group", "result": 50.52}, {"measurement": "CVLT I & II List B V1, Mean", "setting": "250 mg/day group", "result": 5.78}, {"measurement": "V3-V1 CVLT I & II Difference List A Long Delay, Mean", "setting": "250 mg/day group", "result": 0.81}, {"measurement": "V3-V1 CVLT I & II Difference List A Short Delay, Mean", "setting": "250 mg/day group", "result": 1.04}, {"measurement": "V3-V1 CVLT I & II Difference List A Trial 1, Mean", "setting": "250 mg/day group", "result": 1.63}, {"measurement": "V3-V1 CVLT I & II Difference List A Trial 5, Mean", "setting": "250 mg/day group", "result": 0.52}, {"measurement": "V3-V1 CVLT I & II Difference List A Trials 1-5, Mean", "setting": "250 mg/day group", "result": 3.11}, {"measurement": "V3-V1 CVLT I & II Difference List B Trial 1, Mean", "setting": "250 mg/day group", "result": 0.48}, {"measurement": "CVLT I & II List A Long Delay V3, Mean", "setting": "250 mg/day group", "result": 11.07}, {"measurement": "CVLT I & II List A Short Delay V3, Mean", "setting": "250 mg/day group", "result": 11.59}, {"measurement": "CVLT I & II List A Trial 1 V3, Mean", "setting": "250 mg/day group", "result": 7.74}, {"measurement": "CVLT I & II List A Trial 5 V3, Mean", "setting": "250 mg/day group", "result": 12.85}, {"measurement": "CVLT I & II List A Trials 1-5 V3, Mean", "setting": "250 mg/day group", "result": 53.63}, {"measurement": "CVLT I & II List B V3, Mean", "setting": "250 mg/day group", "result": 6.26}, {"measurement": "CVLT I & II List A Long Delay V1, Mean", "setting": "500 mg/day group", "result": 9.79}, {"measurement": "CVLT I & II List A Short Delay V1, Mean", "setting": "500 mg/day group", "result": 10.25}, {"measurement": "CVLT I & II List A Trial 1 V1, Mean", "setting": "500 mg/day group", "result": 6.58}, {"measurement": "CVLT I & II List A Trial 5 V1, Mean", "setting": "500 mg/day group", "result": 11.83}, {"measurement": "CVLT I & II List A Trials 1-5 V1, Mean", "setting": "500 mg/day group", "result": 49.04}, {"measurement": "CVLT I & II List B V1, Mean", "setting": "500 mg/day group", "result": 6.67}, {"measurement": "V3-V1 CVLT I & II Difference List A Long Delay, Mean", "setting": "500 mg/day group", "result": 1.13}, {"measurement": "V3-V1 CVLT I & II Difference List A Short Delay, Mean", "setting": "500 mg/day group", "result": 0.96}, {"measurement": "V3-V1 CVLT I & II Difference List A Trial 1, Mean", "setting": "500 mg/day group", "result": 1.00}, {"measurement": "V3-V1 CVLT I & II Difference List A Trial 5, Mean", "setting": "500 mg/day group", "result": 0.88}, {"measurement": "V3-V1 CVLT I & II Difference List A Trials 1-5, Mean", "setting": "500 mg/day group", "result": 3.75}, {"measurement": "V3-V1 CVLT I & II Difference List B Trial 1, Mean", "setting": "500 mg/day group", "result": -0.33}, {"measurement": "CVLT I & II List A Long Delay V3, Mean", "setting": "500 mg/day group", "result": 10.92}, {"measurement": "CVLT I & II List A Short Delay V3, Mean", "setting": "500 mg/day group", "result": 11.21}, {"measurement": "CVLT I & II List A Trial 1 V3, Mean", "setting": "500 mg/day group", "result": 7.58}, {"measurement": "CVLT I & II List A Trial 5 V3, Mean", "setting": "500 mg/day group", "result": 12.71}, {"measurement": "CVLT I & II List A Trials 1-5 V3, Mean", "setting": "500 mg/day group", "result": 52.79}, {"measurement": "CVLT I & II List B V3, Mean", "setting": "500 mg/day group", "result": 6.33}]}]}
